Literature values in patent publication US20110257192A1, “COMPOUND FOR TREATMENT OF RESPIRATORY CONDITION OR DISEASE” (BIOTA SCIENTIFIC MANAGEMENT PTY LTD, priority 2010, published 2011).

Conditions: administered orally

Cc1cc(CCCOc2c(C)cc(-c3noc(C(F)(F)F)n3)cc2C)on1 [pleconaril]
effect on asthma exacerbation: did not have an effect on asthma exacerbation
